Key:
[1] = biological target: CYP2D6 (Homo sapiens, UniProt P10635); experiment: Time-dependent CYP inhibition in pooled human liver microsomes; assay type: in vitro ADME
[2] = biological target: T1, OATP1B3 (Homo sapiens, UniProt Q9NPD5); experiment: Inhibition of transporter-mediated probe uptake in HEK293-OATP1B3 cells; assay type: in vitro ADME
T1 construct: host or cells: HEK293
T1 sequence (Q9NPD5 1-702): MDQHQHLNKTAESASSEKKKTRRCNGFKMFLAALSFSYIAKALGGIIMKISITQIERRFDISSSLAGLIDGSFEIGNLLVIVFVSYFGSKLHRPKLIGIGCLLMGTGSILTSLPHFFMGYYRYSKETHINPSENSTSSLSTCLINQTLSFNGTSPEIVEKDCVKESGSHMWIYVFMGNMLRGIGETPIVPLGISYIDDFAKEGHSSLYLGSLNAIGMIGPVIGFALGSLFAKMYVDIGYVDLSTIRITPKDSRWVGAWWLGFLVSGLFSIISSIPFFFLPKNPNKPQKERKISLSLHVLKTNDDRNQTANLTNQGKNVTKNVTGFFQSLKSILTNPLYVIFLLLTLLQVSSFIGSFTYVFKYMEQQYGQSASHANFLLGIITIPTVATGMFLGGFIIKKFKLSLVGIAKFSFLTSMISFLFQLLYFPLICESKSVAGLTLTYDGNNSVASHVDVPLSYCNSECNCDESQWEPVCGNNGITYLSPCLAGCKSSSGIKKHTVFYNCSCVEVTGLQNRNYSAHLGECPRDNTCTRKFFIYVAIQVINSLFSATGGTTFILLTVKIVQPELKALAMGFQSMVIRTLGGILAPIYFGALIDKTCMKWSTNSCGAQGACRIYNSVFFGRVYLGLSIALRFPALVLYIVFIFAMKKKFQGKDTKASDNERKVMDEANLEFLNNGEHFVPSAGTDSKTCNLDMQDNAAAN

[3] = biological target: T2, OAT3 (Homo sapiens, UniProt Q8TCC7); experiment: Inhibition of transporter-mediated probe uptake in MDCKII-OAT3 cells; assay type: in vitro ADME
T2 construct: expressed in transfected cells; host or cells: MDCKII
T2 sequence (Q8TCC7 1-542): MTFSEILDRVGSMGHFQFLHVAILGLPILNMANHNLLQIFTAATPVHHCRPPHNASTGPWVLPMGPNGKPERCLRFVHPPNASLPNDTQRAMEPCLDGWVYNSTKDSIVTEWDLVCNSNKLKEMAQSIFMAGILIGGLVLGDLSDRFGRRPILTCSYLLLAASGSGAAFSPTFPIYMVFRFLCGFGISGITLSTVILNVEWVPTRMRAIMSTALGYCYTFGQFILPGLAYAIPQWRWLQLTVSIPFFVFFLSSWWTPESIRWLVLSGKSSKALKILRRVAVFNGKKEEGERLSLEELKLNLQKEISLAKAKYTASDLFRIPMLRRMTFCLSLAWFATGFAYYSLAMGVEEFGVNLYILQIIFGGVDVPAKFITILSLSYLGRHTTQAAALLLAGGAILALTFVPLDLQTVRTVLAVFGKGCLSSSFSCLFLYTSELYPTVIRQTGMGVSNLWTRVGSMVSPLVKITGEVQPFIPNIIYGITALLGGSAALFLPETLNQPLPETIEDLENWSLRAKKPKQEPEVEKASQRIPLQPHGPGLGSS

[4] = Plasma protein binding by equilibrium dialysis, mouse plasma; assay type: in vitro ADME; settings: pH 7.4
[5] = tested on: CYP2B6; experiment: CYP induction in cryopreserved human hepatocytes; settings: for mRNA Mean Fold Change ± SD CYP2B6: 48 h, n = 3 donors, vs DMSO vehicle
[6] = biological target: CYP2C9 (Homo sapiens, UniProt P11712); experiment: Reversible CYP inhibition in pooled human liver microsomes; assay type: in vitro ADME
[7] = tested on: HIV-1; settings: cited from earlier work
[8] = biological target: T3, CYP1A2 (Homo sapiens, UniProt P05177); experiment: Reversible CYP inhibition in pooled human liver microsomes; assay type: in vitro ADME
T3 sequence (P05177 1-516): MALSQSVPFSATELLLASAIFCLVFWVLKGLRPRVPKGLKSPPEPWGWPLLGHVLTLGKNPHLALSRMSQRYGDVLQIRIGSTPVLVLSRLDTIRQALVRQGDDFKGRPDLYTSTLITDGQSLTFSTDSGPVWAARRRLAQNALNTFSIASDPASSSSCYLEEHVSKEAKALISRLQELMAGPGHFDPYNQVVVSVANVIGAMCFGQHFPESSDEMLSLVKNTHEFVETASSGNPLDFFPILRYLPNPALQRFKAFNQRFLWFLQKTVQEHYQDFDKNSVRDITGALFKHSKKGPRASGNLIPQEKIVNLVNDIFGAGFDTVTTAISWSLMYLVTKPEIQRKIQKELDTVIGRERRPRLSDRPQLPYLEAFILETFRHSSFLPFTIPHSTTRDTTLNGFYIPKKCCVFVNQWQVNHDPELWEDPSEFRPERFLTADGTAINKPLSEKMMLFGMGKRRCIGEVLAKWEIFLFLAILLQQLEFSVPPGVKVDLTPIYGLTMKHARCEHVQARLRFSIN

Chain of CYP2D6 (P10635 whole entry): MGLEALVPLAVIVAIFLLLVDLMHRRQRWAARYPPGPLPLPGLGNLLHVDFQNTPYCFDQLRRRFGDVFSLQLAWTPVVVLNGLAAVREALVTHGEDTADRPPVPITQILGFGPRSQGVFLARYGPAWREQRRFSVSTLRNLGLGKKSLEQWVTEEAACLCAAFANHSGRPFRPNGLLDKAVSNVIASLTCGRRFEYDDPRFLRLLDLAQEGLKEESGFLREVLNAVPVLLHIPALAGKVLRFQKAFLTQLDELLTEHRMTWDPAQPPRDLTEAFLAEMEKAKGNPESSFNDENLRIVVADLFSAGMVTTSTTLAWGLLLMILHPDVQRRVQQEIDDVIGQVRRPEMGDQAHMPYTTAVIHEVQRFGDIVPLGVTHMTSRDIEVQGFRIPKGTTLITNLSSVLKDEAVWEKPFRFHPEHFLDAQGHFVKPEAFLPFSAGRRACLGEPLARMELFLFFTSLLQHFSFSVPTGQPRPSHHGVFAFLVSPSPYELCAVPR
Chain of CYP2C9 (P11712 whole entry): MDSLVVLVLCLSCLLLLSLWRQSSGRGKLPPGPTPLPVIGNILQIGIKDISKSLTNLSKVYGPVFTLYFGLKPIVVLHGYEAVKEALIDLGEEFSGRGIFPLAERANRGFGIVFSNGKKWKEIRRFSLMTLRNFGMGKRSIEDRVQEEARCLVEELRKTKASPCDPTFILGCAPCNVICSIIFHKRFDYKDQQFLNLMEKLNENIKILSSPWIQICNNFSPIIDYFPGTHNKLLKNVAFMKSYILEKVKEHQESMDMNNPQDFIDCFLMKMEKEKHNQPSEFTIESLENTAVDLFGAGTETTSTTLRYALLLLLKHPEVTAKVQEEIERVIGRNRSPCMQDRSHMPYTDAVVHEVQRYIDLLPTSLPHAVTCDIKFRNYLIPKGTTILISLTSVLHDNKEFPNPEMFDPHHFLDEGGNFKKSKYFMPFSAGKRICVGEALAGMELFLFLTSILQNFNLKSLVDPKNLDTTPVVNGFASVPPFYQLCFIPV

C#C[C@]1(CO)O[C@@H](n2cnc3c(N)nc(F)nc32)C[C@@H]1O [Islatravir, 4′-Ethynyl-2-fluoro-2′-deoxyadenosine]
time-dependent inhibition ([1]; CYP2D6, pre-incubation of 10 and 50 µM for up to 30 min): no time-dependent inhibition | DDI Potential ([1]; CYP2D6 time dependent inhibition): Low risk ^h | IC50 ([1]; time dependent, CYP2D6, read-out: Islatravir IC50): > 50 µM | IC50 ([2]; OATP1B3-mediated uptake of sulfobromophthalein, read-out: Islatravir IC50): > 300 µM | Maximum Unbound Inlet Concentration (Iin,max,u) to IC50 Ratio ([2]; OATP1B3, 60 mg dose): <0.035 | DDI Potential ([2]; OATP1B3 inhibition, FDA, EMA, PMDA guidance): Low risk | inhibition at 100 µM ([3]; MDCKII-OAT3 cells, probe estrone sulfate, 100 µM islatravir): 31% | IC50 ([3]; OAT3-mediated estrone sulfate uptake, read-out: Islatravir IC50): > 100 µM | Maximum Unbound Plasma Concentration (Imax,u) to IC50 Ratio ([3]; OAT3, 60 mg, Cmax 1.01 µM, fu,p 0.96): <0.010 µM | DDI Potential ([3]; OAT3 inhibition, FDA, EMA, PMDA guidance): Low risk | fraction unbound at 24 h, 0.1 µM [4]: > 0.84 | mRNA Mean Fold Change ± SD CYP2B6 ([5]; 0.1 µM): 0.5 ± 0.1 | mRNA Mean Fold Change ± SD CYP2B6 ([5]; 0.5 µM): 0.5 ± 0.2 | mRNA Mean Fold Change ± SD CYP2B6 ([5]; 1 µM): 0.7 ± 0.2 | mRNA Mean Fold Change ± SD CYP2B6 ([5]; 5 µM): 0.7 ± 0.1 | mRNA Mean Fold Change ± SD CYP2B6 ([5]; 10 µM): 0.9 ± 0.3 | mRNA Mean Fold Change ± SD CYP2B6 ([5]; 20 µM): 0.4 ± 0.3 | mRNA response relative to positive control ([5]; CYP2B6, each tested concentration 0.1-20 µM): less than 20% | enzyme activity, fold of solvent control ([5]; CYP2B6 bupropion hydroxylation, all islatravir concentrations): ≤ 1.1 fold | DDI Potential ([6]; CYP2C9 reversible inhibition, FDA, EMA, PMDA guidance): Low risk | Maximum Unbound Plasma Concentration (Imax,u) to Ki,u Ratio ([6]; CYP2C9 reversible, 60 mg, Cmax 1.01 µM, fu,p 0.96, Ki,u = IC50/2): <0.019 µM | IC50 ([6]; reversible, CYP2C9 diclofenac 4′-hydroxylation, read-out: Islatravir IC50): > 100 µM | tolerability ([7]; participants with and without HIV across a range of doses): generally well tolerated | duration of viral load reduction maintained ([7]; single administration at a dose as low as 0.5 mg): 7 days | duration of viral load suppression ([7]; treatment-naïve PLWH, oral doses between 0.5 and 30 mg): at least 7 days | DDI Potential ([8]; CYP1A2 reversible inhibition, FDA, EMA, PMDA guidance): Low risk | Maximum Unbound Plasma Concentration (Imax,u) to Ki,u Ratio ([8]; CYP1A2 reversible, 60 mg, Cmax 1.01 µM, fu,p 0.96, Ki,u = IC50/2): <0.019 µM | IC50 ([8]; reversible, CYP1A2 phenacetin O-deethylation, read-out: Islatravir IC50): > 100 µM

Reference: publication PMC8402619 (Viruses, 2021)
